Earlier results on one substance are cited in patent EP0594592B1, “A GROWTH FACTOR IN […] ARTIFICIAL TRANSPLANTS” (Strid, Lars, priority 1990, dated 1997).

One series concerns blood platelets. The settings on record: result in words.
For series [1], the system named is macrophages, monocytes, mast cells and capillary endothelial cells. The settings on record: result in words.
For series [2] the following is noted: on a molar basis.
The test system of the next series is thromboxane. The settings on record: result in words.

“copper complex of the tripeptide glycyl-L-histidyl-L-lysine [GHK-Cu^2+]”: the “aggregation of blood platelets” value in the series with blood platelets is on record as “inhibits”. The “chemoattractive effect on cells necessary for wound-healing” value in series [1] is “chemoattractive effect”. Also, the “superoxide dismutase-like activity, rate constant relative to enzymatic Cu,Zn-superoxide dismutase” value in series [2] is reported as “about 25%”. The “effect on the hormone thromboxane” value in the series on thromboxane is listed as “inhibits”. Besides, the “fibroblasts synthesis of collagen” value in the series with fibroblasts (at 10^-9M, result in words) was “almost doubles”. In addition, the “increase in collagen synthesis” value with fibroblasts (cultures of fibroblasts, at 10^-9M) was “about 80%”. Also, in the series on fibroblasts (cultures of fibroblasts, lowest concentration with stimulation), the “peptide concentration at which stimulation of collagen synthesis is observed (as low as)” value was 10^-12 M. The “peptide concentration of maximum stimulation of collagen synthesis” value with fibroblasts (cultures of fibroblasts, maximal activity) was 10^-9 M.
